Values of other authors, collected in patent publication US20210275546A1, “HIGH DRUG LOAD SOLID ORAL DOSAGE FORMS OF DEXAMETHASONE” (Jubilant Pharma Holdings Inc., priority 2020, published 2021).
“Also recorded” adds a separate entry of the source.

solubility in acetone (acetone): sparingly soluble
solubility in dichloromethane (dichloromethane): slightly soluble
solubility in ethanol (ethanol): sparingly soluble
solubility in methanol (methanol): sparingly soluble
Structure (SMILES): C[C@@H]1C[C@H]2[C@@H]3CCC4=CC(=O)C=C[C@]4(C)[C@@]3(F)[C@@H](O)C[C@]2(C)[C@@]1(O)C(=O)CO [Dexamethasone, 9-fluoro-11β,17,21trihydroxy-16α-methylpregna-1,4-diene-3,20-dione]
solubility in water (water): practically insoluble; also recorded: poorly water-soluble
